Test system: dog
Experiment: single intravenous administration toxicity using a dog
Assay type: in vivo
Conditions: dose of 100 mg/kg
From the text: Toxicity of (2R)-2-propyloctanoic acid or a salt thereof is very low, and it is considered to be sufficiently safe for the use as a pharmaceutical drug.

Structure (SMILES): CCCCCC[C@@H](CCC)C(=O)O [(2R)-2-propyloctanoic acid]
- death after single intravenous administration: did not result in death
